The term IC50 denotes the point on the concentration scale where inhibition reaches its midpoint. By melting point is commonly meant the temperature of the solid-liquid transition.

17 compounds from patent US8193356B2, “Heterocycle compound, and production process and application thereof” (Aska Pharmaceutical Co., Ltd., priority 2005, dated 2012) can be followed below.

In data set [1] the test system is T1, PDE IV isozyme separated from U937 cultured cell.
T1 construct: PDE IV isozyme separated from U937 cultured cell by an ion exchange chromatography was used
Description: PDE IV inhibitory action. The data set is classed as biochemical. As to conditions: cAMP as substrate, 30° C. for 20 minutes, Probit method. As for the experimental part: PDE IV isozyme separated from U937 cultured cell by an ion exchange chromatography was used. The PDE IV isozyme was added to ethylene glycol so that the final concentration of the isozyme was 30% by weight, and the solution was stored at −20° C. The stored solution was dissolved in use. The enzyme activity was measured by using cAMP as a substrate.
On the other hand, the test compound was dissolved in dimethylsulfoxide (DMSO) so that the final concentration of the test compound was 1% by weight (2.5 μL/tube), and the resulting solution was named Solution B.
Formulation of the incubation buffer (pH 7.5): Tris-hydrochloric acid (50 mM), magnesium chloride (6 mM), dithiothreitol (2.5 mM), 5-nucleotidase (4 μg/mL), bovine serum albumin (0.23 mg/mL), and cAMP (1 μM)
A mixture of the Solution B of the test compound and the Solution A was incubated at 30° C. for 20 minutes. Then, 1 mL of a slurry of an anion exchange resin (AG1-X8, 200-400 mesh, chloride form; manufactured by Bio-Rad Laboratories, Inc.) was added thereto, and the reaction was stopped by adsorption of an unreacted substrate on the resin.
After the stop of the reaction, the reaction mixture was centrifuged at a centrifugal acceleration of 800×g for 10 minutes, and 250 μL of the resulting supernatant was transferred in a vial. To the vial was added 5 mL of ACS-II (a scintillator manufactured by Amarsham Bioscience), and a [^3H]-adenosine radio activity was measured as a PDE IV activity by a liquid scintillation counter.

The subject of a further data set is TNFα production. The data set is described as follows: Inhibitory action on galactosamine- and LPS-induced TNFα production. Type of data set: in vivo. The settings on record: mouse, 0.5 mg/kg orally, serum TNFα one hour after galactosamine and LPS i.v., ELISA. As for the experimental part:
A dose (0.5 mg/kg) of the test compound suspended in 0.5% (W/V) CMC-Na aqueous solution was orally administered to a mouse. After one hour, galactosamine (800 mg/kg) and LPS (5 μg/kg) were intravenously administered to induce TNFα production. The amount of TNFα in serum one hour after the administration of galactosamine and LPS was measured by ELISA method.

Another data set has as its target T2, CYP2D6 (Homo sapiens, UniProt P10635).
T2 construct: purchased BD Bioscience
The data set is described as follows: Inhibitory action on drug metabolizing enzyme (CYP2D6/AMMC high throughput inhibitor screening kit). The data set is classed as in vitro ADME. As to conditions: CYP2D6 expression system microsome, AMMC substrate, 37° C. for 30 minutes. The protocol: (§1) Inhibitory actions on CYP2D6 and CYP3A4 were measured by using a CYP2D6/AMMC high throughput inhibitor screening kit and a CYP3A4/BFC high throughput inhibitor screening kit (both manufactured by BD Bioscience), respectively. That is, an NADPH generation system, a cofactor, and the test compound were dispersed in a 96-well plate, and AMMC (CYP2D6) and BFC (CYP3A4), which were fluorescent substrates, were added to each well. Further, CYP2D6 expression system microsome and CYP3A4 expression system microsome were added to each well and incubated at 37° C. for 30 minutes. […] Incidentally, as a control substance of this test, roflumilast was used.

A further data set has as its target T3, CYP3A4 (Homo sapiens, UniProt P08684).
T3 construct: purchased BD Bioscience
The data set is described as follows: Inhibitory action on drug metabolizing enzyme (CYP3A4/BFC high throughput inhibitor screening kit). As to conditions: CYP3A4 expression system microsome, BFC substrate, 37° C. for 30 minutes. The data set is classed as in vitro ADME. The protocol: as §1

The structures appear in SMILES notation.

T3 sequence (P08684 whole entry): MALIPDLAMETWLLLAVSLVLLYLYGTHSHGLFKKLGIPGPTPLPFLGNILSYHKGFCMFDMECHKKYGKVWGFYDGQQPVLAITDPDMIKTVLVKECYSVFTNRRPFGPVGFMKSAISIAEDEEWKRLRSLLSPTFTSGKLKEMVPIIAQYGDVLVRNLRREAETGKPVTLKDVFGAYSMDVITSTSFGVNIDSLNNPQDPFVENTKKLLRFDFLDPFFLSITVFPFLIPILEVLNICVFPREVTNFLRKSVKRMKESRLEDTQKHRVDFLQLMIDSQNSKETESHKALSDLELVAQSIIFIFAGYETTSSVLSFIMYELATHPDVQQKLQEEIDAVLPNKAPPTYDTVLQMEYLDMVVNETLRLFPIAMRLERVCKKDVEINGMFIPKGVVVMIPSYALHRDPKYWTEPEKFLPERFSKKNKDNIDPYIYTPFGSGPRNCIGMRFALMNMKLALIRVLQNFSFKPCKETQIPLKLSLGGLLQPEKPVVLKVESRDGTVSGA
T2 sequence (P10635 whole entry): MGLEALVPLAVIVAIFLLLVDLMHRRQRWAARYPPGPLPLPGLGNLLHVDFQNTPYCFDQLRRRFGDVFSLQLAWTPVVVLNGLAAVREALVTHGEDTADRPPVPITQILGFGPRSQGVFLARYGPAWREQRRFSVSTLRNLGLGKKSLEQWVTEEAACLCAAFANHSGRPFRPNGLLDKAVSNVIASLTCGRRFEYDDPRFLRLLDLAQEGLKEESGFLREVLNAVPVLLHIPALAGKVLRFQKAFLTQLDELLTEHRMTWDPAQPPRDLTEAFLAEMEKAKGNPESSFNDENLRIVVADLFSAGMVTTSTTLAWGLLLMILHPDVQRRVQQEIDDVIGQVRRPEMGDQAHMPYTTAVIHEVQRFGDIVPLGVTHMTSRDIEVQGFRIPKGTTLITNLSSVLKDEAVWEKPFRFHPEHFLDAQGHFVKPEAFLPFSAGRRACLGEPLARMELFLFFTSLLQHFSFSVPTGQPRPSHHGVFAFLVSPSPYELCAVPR

`O=c1c2c(Cc3ccccc3C(F)(F)F)n[nH]c2c2cccnc2n1-c1ccccc1` [Example 8, 5-Phenyl-3-(2-trifluoromethylbenzyl)-1H-pyrazolo[4,3-c][1,8]naphthyridin-4(5H)-one] gave a melting point of 292 to 294 °C. Moreover, in data set [1], the IC50 stood at 0.003 µM. The “Inhibitory rate (%) of TNFα production in 0.5 mg/kg” value (“Inhibitory rate (%)” below) in the data set on TNFα production turned out to be 51%. On CYP2D6, this compound yielded an IC50 of over 10 µM. The IC50 at CYP3A4 is over 10 µM. In data set [1], `O=c1c2c(Cc3ccccc3)n[nH]c2c2cccnc2n1-c1cccc(C(F)(F)F)c1` [Example 2, 3-Benzyl-5-(3-trifluoromethylphenyl)-1H-pyrazolo[4,3-c][1,8]-naphthyridin-4(5H)-one] showed an IC50 of 0.007 µM. Moreover, the “Inhibitory rate (%)” value in the data set on TNFα production came to 55%. On the same counts, the results for `O=c1c2c(Cc3ccccc3)n[nH]c2c2cccnc2n1-c1cccc(OC(F)(F)F)c1` [Example 1, 3-Benzyl-5-(3-trifluoromethoxyphenyl)-1H-pyrazolo[4,3-c][1,8]-naphthyridin-4(5H)-one] are 0.003 µM and 47%. Take `O=C(Nc1c(Cl)cncc1Cl)c1ccc(OC(F)F)c(OCC2CC2)c1` [Roflumilast, reference compound]: in the data set on TNFα production, the “Inhibitory rate (%)” value came out at 50%.

For `CC(c1ccccc1)c1n[nH]c2c1c(=O)n(-c1ccccc1)c1ncccc21` (centres unmarked) [Example 11, 5-Phenyl-3-(1-phenylethyl)-1H-pyrazolo[4,3-c][1,8]naphthyridin-4(5H)-one], the half-inhibitory concentration (IC50) in data set [1] was 0.014 µM; against CYP2D6 it was over 10 µM; at CYP3A4, 8.9 µM. For the same compound, the “Inhibitory rate (%)” value in the data set on TNFα production is listed as 49%. `O=c1c2c(Cc3cccs3)n[nH]c2c2cccnc2n1-c1cccc(OC(F)(F)F)c1` [Example 45, 3-(2-Thienylmethyl)-5-(3-trifluoromethoxyphenyl)-1H-pyrazolo[4,3-c][1,8]-naphthyridin-4(5H)-one] displayed a melting point of 234 to 238 °C. Still for that read-out and setting: the value for `O=c1c2c(Cc3ccc(C(F)(F)F)cc3)n[nH]c2c2cccnc2n1-c1cccc(OC(F)(F)F)c1` [Example 25, 5-(3-Trifluoromethoxyphenyl)-3-(4-trifluoromethylbenzyl)-1H-pyrazolo[4,3-c][1,8]naphthyridin-4(5H)-one] was 227 to 231 °C; that for `O=c1c2c(Cc3ccc(OC(F)(F)F)cc3)n[nH]c2c2cccnc2n1-c1cccc(C(F)(F)F)c1` [Example 22, 3-(4-Trifluoromethoxybenzyl)-5-(3-trifluoromethylphenyl)-1H-pyrazolo[4,3-c][1,8]naphthyridin-4(5H)-one] was 134 to 137 °C; that for `Cc1ccc2c3[nH]nc(Cc4ccccc4)c3c(=O)n(-c3ccccc3)c2n1` (hydrate or solvate) [Example 3, 3-Benzyl-7-methyl-5-phenyl-1H-pyrazolo[4,3-c][1,8]-naphthyridin-4(5H)-one] was 300 to 302 °C.

In turn, `O=c1c2c(Cc3ccccc3OC(F)(F)F)n[nH]c2c2cccnc2n1-c1cccc(OC(F)(F)F)c1` [Example 26, 3-(2-Trifluoromethoxybenzyl)-5-(3-trifluoromethoxyphenyl)-1H-pyrazolo[4,3-c][1,8]naphthyridin-4(5H)-one] had a melting point of 233 to 236 °C. `O=c1c2c(Cc3ccsc3)n[nH]c2c2cccnc2n1-c1cccc(OC(F)(F)F)c1` [Example 46, 3-(3-Thienylmethyl)-5-(3-trifluoromethoxyphenyl)-1H-pyrazolo[4,3-c][1,8]-naphthyridin-4(5H)-one] gave a melting point of 247 to 251 °C. On the same count and under the same terms, as for `Cc1ccccc1Cc1n[nH]c2c1c(=O)n(-c1cccc(C(F)(F)F)c1)c1ncccc21` (hydrate or solvate) [Example 40, 3-(2-Methylbenzyl)-5-(3-trifluoromethylphenyl)-1H-pyrazolo[4,3-c][1,8]-naphthyridin-4(5H)-one], the figure is 249 to 252 °C. `CC(c1ccccc1)c1n[nH]c2c1c(=O)n(-c1cccc(OC(F)(F)F)c1)c1ncccc21` (centres unmarked) [Example 36, 3-(1-Phenylethyl)-5-(3-trifluoromethoxyphenyl)-1H-pyrazolo[4,3-c][1,8]naphthyridin-4(5H)-one] registered a melting point of 183 to 185 °C. In the case of `O=c1c2c(CC3CCOCC3)n[nH]c2c2cccnc2n1-c1ccccc1` (hydrate or solvate) [Example 44, 5-Phenyl-3-(tetrahydro-2H-pyran-4-ylmethyl)-1H-pyrazolo[4,3-c][1,8]naphthyridin-4(5H)-one], the melting point was 228 to 234 °C. Compound `O=c1c2c(CC3CCCCC3)n[nH]c2c2cccnc2n1-c1ccccc1` [Example 13, 3-Cyclohexylmethyl-5-phenyl-1H-pyrazolo[4,3-c][1,8]naphthyridin-4(5H)-one] yielded a melting point of 280 to 281 °C. Compound `O=c1c2c(Cc3ccccc3C(F)(F)F)n[nH]c2c2cccnc2n1-c1cccc(C(F)(F)F)c1` [Example 17, 3-(2-Trifluoromethylbenzyl)-5-(3-trifluoromethylphenyl)-1H-pyrazolo[4,3-c][1,8]naphthyridin-4(5H)-one] returned a melting point of 260 to 264 °C.

`O=c1c2c(Cc3ccc(C(F)(F)F)cc3)n[nH]c2c2cccnc2n1-c1ccccc1` [Example 7, 5-Phenyl-3-(4-trifluoromethylbenzyl)-1H-pyrazolo[4,3-c][1,8]naphthyridin-4(5H)-one] displayed a melting point of 216 to 219 °C.
